Experimental data published in patent publication EP2969029B1, “USE OF COSMETICALLY OR DERMATOLOGICALLY SAFE SUBSTITUTED MICHAEL ACCEPTORS FOR THE PREVENTION, REDUCTION OR PROPHYLAXIS OF THE TYROSINASE ACTIVITY OF THE HUMAN SKIN AND/OR THE LIGHTENING OF THE HUMAN SKIN” (Beiersdorf AG, priority 2013, dated 2014).

biological target: T1, humane Tyrosinase (Homo sapiens, UniProt P14679); assay: Enzyme test: conversion of L-DOPA to L-dopaquinone by human tyrosinase, MBTH detection, absorption at 490 nm; format: biochemical; settings: Inhibition der Tyrosinaseaktivität, substrate L-DOPA
T1 sequence (P14679 19-529): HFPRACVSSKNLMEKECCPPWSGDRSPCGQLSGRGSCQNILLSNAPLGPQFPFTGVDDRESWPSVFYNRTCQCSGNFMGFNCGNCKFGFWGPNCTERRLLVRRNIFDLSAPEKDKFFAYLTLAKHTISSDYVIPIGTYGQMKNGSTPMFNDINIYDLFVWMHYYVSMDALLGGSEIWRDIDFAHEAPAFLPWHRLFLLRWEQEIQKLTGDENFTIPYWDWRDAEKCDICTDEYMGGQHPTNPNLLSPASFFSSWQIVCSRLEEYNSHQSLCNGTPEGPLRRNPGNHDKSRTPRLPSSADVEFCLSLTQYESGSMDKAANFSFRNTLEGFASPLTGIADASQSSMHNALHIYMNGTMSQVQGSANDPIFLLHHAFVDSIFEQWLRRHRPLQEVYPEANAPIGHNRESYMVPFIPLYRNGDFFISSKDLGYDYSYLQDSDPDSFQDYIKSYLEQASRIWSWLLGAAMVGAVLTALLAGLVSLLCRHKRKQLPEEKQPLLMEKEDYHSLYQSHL

SMILES	EC50 [µM]
CCOC(=O)C=Cc1ccccc1 [Ethyl cinnamat]	2590
CCCc1c[nH]c(=S)[nH]c1=O [5-Propyl-2-thioxo-2,3-dihydropyrimidin-4(1H)-on]	494
C=CCOC(=O)C=Cc1ccccc1 [Allyl cinnamat]	2340
O=C(OCc1ccccc1)c1ccccc1 [Benzyl benzoat]	998
O=C(/C=C/c1ccc(O)cc1)NCCc1c[nH]c2ccc(O)cc12 [(E)-N-(2-(5-hydroxy-1H-indol-3-yl)ethyl)-3-(4-hydroxyphenyl)acrylamid]	515
COc1cc(/C=C/C(=O)O)ccc1O [trans-Ferulasäure]	2210
O=C(O)/C=C/c1ccc(O)c(O)c1 [(E)-3-(3,4-dihydroxyphenyl)acrylsäure]	1370
CCCCCCOC(=O)c1ccccc1O [Hexyl 2-hydroxybenzoat]	4230
C=COC(=O)C=Cc1ccccc1 [Vinyl cinnamat]	2610
CC1CCC(=CC(=O)O)CC1 (stereo not shown) [2-(4-Methyl-1-cyclohexyliden)essigsäure]	6540
O=C(O)/C=C/c1cccs1 [(E)-3-(thiophen-2-yl)acrylsäure]	32
COc1ccc(C(=O)/C=C(\O)c2ccc(C(C)(C)C)cc2)cc1 [(Z)-3-(4-(tert-butyl)phenyl)-3-hydroxy-1-(4-methoxyphenyl)prop-2-en-1-on]	1550
O=C(O)/C=C/c1ccncc1 [(E)-3-(pyridin-4-yl) acrylsäure]	697
O=C(O)/C=C/c1c[nH]c2ccccc12 [(E)-3-(1H-indol-3-yl)acrylsäure]	833
O=C(O)/C=C/c1cccnc1 [(E)-3-(pyridin-3-yl)acrylsäure]	634
COc1ccc(C=CC(=O)OCCC(C)C)cc1 [Isoamyl p-Methoxycinnamat]	358
O=C(C=Cc1ccccc1)OCc1ccccc1 [Benzyl cinnamat]	260
O=C(OC1CCCCC1)c1ccccc1O [Cyclohexyl 2-hydroxybenzoat]	547
O=C(O)c1ccccc1 [Natrium Benzoat]	1440
O=CC=Cc1ccccc1 [Zinnamaldehyd]	211
O=C(OCc1ccccc1)c1ccccc1O [Benzyl 2-hydroxybenzoat]	378
COC(=O)c1cc(O)ccc1O [Methyl 2,5-Dihydroxybenzoat]	2450
COc1ccc(C(=O)O)c(O)c1 [2-Hydroxy-4-methoxy Benzoesäure]	2660
O=C(O)/C=C/c1ccco1 [(E)-3-(furan-2-yl)acrylsäure]	166
C/C=C/C=C/C(=O)O [Kaliumsorbat]	1530
